{"source": "patent US9486394B2", "about": "“Pharmaceutical foam” (STIEFEL WEST COAST, LLC, priority 2003, dated 2016)", "key": {"[1]": {"assay": "Stability with different can linings (Example 2)", "assay_type": "physicochemical", "conditions": "4 weeks", "procedure": "Low buffer levels at a pH of 4.5 or 6.5, including unbuffered pH 4.5, were tested in cans with either epoxy-phenolic, polyamide-imide (PAM), or Micoflex linings. Some of the PAM-lined cans were scratched internally to check for corrosion on bare aluminum. Cans were stored at 4° C., 40° C., and 50° C. for 4 weeks and then examined."}, "[2]": {"assay": "Stability, citrate buffer pH, epoxy-phenolic lined cans (Example 1)", "conditions": "1 month", "description": "In this study, a citrate buffer solution was used to adjust the pH of the mixture to pH 4.5, pH 5.5, and pH 6.5 using four different buffer concentrations (i.e., 0, 0.1, 0.3, 0.5%) and two alternative emollients or humectants, i.e., propylene glycol and glycerin. The containers were stored at 50° C. for 1 month and then examined."}}, "data": [{"molecule": "CCC[C@@H]1C[C@@H](C(=O)N[C@@H]([C@H]2O[C@H](SC)[C@H](OP(=O)(O)O)[C@@H](O)[C@H]2O)[C@H](C)Cl)N(C)C1", "note": "[clindamycin phosphate]", "values": [{"measurement": "clindamycin phosphate stability in PAM-lined container", "setting": "[1]; FIG. 4", "result": "unexpectedly high"}, {"measurement": "degradation of clindamycin phosphate", "setting": "[1]; 40° C.", "result": "moderate degradation"}, {"measurement": "degradation of clindamycin phosphate", "setting": "[1]; 50° C.", "result": "relatively severe degradation"}, {"measurement": "clindamycin phosphate degradation at higher buffer levels", "setting": "[2]; citrate buffer 0.5%, 0.3% vs 0.1%, 0.0%, 50° C.", "result": "higher amount of clindamycin phosphate degradation"}, {"measurement": "stability of clindamycin phosphate as a function of pH", "setting": "[2]; pH 4.5, 5.5, 6.5, 50° C., FIG. 3", "result": "more stable at a lower pH level"}]}]}
